Earlier results in patent US8815929B2, “Method and therapeutic/cosmetic topical compositions for the treatment of rosacea and skin erythema using α1-adrenoceptor agonists” (Allergan, Inc., priority 2004, dated 2014).
Structures can show the parent of a compound that is named as a salt.

What was measured:
[1] = rabbits; injection subcutaneously
[2] = used intranasally and ophthalmically for decades
[3] = dog, cat, rabbit or mouse; dosages close to those used in man; manufacturers' report
[4] = retrospective study in man

association between the drug and congenital disorders [4]: no association was found
Compound: Cc1cc(C(C)(C)C)c(O)c(C)c1CC1=NCCN1 [oxymetazoline, 2-(3-Hydroxy-2,6-dimethyl-4-t-butylbenzyl)-2-imidazoline hydrochloride]
drug related abnormalities or effects on the offspring [1]: no drug related abnormalities or effects on the offspring were found | systemic side effects [2]: has not been reported to effect any systemic side effects | organ damage or general toxicity [3]: no significant organ damage or general toxicity
